ChEMBL document CHEMBL1201862, “PubChem BioAssay data set” (2004)
Active and inactive are the calls of the source.

Columns and labels:
[1] = target: T1, Runt-related transcription factor 1/Core-binding factor subunit beta (Homo sapiens, UniProt Q01196+Q13951); test: inhibitors of RUNX1 Runt–CBFb-SMMHC binding, primary screen, biochemical, FRET, Cerulean-Runt, Venus-CBFb-SMMHC, uHTS (AID 1434); format: protein assay;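 note: partner is the CBFb-SMMHC leukemia fusion protein rather than wild-type CBFb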
[2] = target: T1, Runt-related transcription factor 1/Core-binding factor subunit beta; test: inhibitors of RUNX1 Runt–CBFb-SMMHC binding, biochemical, TR-FRET (AID 1438); format: protein assay
[3] = target: Induced myeloid leukemia cell differentiation protein Mcl-1 (Homo sapiens, UniProt Q07820); format: functional
SUMO-activating enzyme = SUMO-activating enzyme (Homo sapiens, UniProt Q9UBT2); test: SUMOylation inhibitor hit validation, confirmation, SUMOylation inhibitor project, biochemical, AlphaScreen (AID 2018); format: functional
[4] = HEp-2 cell cytotoxicity, dose response, cytotoxicity control for RSV inhibitor project, HTS (AID 2410); format: functional; conditions: human respiratory syncytial virus
[5] = target: T2, Probable nicotinate-nucleotide adenylyltransferase (Staphylococcus aureus (strain N315), UniProt P65502); format: functional, Staphylococcus aureus subsp. aureus N315; conditions: read-out: IC50_Mean;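 for IC50 Mean: confirmatory dose-response retesting of NadD inhibitor hits first found in an ultra-high-throughput screen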
[6] = target: T2, Probable nicotinate-nucleotide adenylyltransferase; format: functional, Staphylococcus aureus subsp. aureus N315
[7] = target: T3, G-protein coupled receptor 35 (Homo sapiens, UniProt Q9HC97); test: SAR analysis of Agonists of the GPR35 Receptor using an Image-Based Assay - Set 4. [Related pubchem assays (depositor defined):AID2013, AID2026]; format: functional
[8] = target: T3, G-protein coupled receptor 35; test: SAR analysis of Antagonists of the GPR35 Receptor using an Image-Based Assay - Set 6. [Related pubchem assays (depositor defined):AID2013, AID2026]; format: functional
[9] = target: G-protein coupled receptor 55 (Homo sapiens, UniProt Q9Y2T6); test: SAR Analysis of Selective Antagonists of GPR55 using an Image-Based Assay - Set 4. [Related pubchem assays (depositor defined):AID2013, AID2026]; format: functional;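 note: antagonism of response to 5 µM lysophosphatidylinositol agonist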
Cannabinoid receptor 1 [10] = target: T4, Cannabinoid receptor 1 (Homo sapiens, UniProt P21554); test: SAR analysis of antagonists of the Cannabinoid Receptor 1 using an Image-Based Assay - Set 4. [Related pubchem assays (depositor defined):AID2013, AID2026]; format: functional
Cannabinoid receptor 2 [11] = target: T5, Cannabinoid receptor 2 (Homo sapiens, UniProt P34972); test: SAR analysis of antagonists of the Cannabinoid Receptor 2 using an Image-Based Assay - Set 3. [Related pubchem assays (depositor defined):AID2013, AID2026]; format: functional
Cannabinoid receptor 2 [12] = target: T5, Cannabinoid receptor 2; test: SAR analysis of agonists of the Cannabinoid Receptor 2 using an Image-Based Assay - Set 3. [Related pubchem assays (depositor defined):AID2013, AID2026]; format: functional
Cannabinoid receptor 1 [13] = target: T4, Cannabinoid receptor 1; test: SAR analysis of agonists of the Cannabinoid Receptor 1 using an Image-Based Assay - Set 4. [Related pubchem assays (depositor defined):AID2013, AID2026]; format: functional
Protein RecA = target: T6, Protein RecA (Mycobacterium tuberculosis, UniProt P9WHJ3); test: Fluorescence Cell-Free Homogeneous Dose Retest to Identify Inhibitors of RecA-Intein Splicing Activity. [Related pubchem assays (depositor defined):AID2097, AID2223, AID489010, AID492950]; format: functional
T6 sequence (P9WHJ3 whole entry): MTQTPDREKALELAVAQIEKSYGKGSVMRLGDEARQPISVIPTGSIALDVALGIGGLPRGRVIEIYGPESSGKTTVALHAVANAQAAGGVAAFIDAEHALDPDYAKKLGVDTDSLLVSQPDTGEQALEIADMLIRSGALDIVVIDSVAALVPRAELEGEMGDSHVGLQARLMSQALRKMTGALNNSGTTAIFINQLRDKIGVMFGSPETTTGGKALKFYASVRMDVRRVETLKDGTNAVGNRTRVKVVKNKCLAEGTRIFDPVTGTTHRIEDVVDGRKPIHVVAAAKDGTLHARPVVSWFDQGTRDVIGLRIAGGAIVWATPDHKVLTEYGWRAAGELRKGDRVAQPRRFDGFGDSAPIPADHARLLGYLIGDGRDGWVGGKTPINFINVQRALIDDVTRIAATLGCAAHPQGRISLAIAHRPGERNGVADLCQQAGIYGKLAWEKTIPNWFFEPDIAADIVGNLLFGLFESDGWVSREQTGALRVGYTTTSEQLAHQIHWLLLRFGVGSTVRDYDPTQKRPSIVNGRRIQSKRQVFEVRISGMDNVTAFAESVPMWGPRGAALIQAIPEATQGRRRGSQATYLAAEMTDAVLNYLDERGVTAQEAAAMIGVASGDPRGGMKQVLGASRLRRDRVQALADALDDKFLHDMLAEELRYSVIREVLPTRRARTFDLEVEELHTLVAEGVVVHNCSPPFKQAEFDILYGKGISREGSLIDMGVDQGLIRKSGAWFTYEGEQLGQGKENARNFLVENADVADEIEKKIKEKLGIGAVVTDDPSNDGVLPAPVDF

Fatty acid synthase [14] = target: T7, Fatty acid synthase (Homo sapiens, UniProt P49327); test: FAS thioesterase domain inhibitors, dose response, biochemical, kinetic fluorescence intensity (AID 624326); format: functional;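 note: rate of fluorescence rise from hydrolysis of a fluorogenic O-methyl fluorescein ester substrate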
[15] = Intein inhibitors as potential Tuberculosis drugs, a cytotoxicity screen. [Related pubchem assays (depositor defined):AID2221, AID2223, AID434968, AID435010, AID449749, AID449750, AID489010]; format: functional
[16] = target: T8, Replicative DNA helicase DnaB (Mycobacterium tuberculosis, UniProt P9WMR3); test: DnaB intein splicing inhibitors, dose response, biochemical, cell-free fluorescence (AID 449749); format: functional
T8 sequence (P9WMR3 whole entry): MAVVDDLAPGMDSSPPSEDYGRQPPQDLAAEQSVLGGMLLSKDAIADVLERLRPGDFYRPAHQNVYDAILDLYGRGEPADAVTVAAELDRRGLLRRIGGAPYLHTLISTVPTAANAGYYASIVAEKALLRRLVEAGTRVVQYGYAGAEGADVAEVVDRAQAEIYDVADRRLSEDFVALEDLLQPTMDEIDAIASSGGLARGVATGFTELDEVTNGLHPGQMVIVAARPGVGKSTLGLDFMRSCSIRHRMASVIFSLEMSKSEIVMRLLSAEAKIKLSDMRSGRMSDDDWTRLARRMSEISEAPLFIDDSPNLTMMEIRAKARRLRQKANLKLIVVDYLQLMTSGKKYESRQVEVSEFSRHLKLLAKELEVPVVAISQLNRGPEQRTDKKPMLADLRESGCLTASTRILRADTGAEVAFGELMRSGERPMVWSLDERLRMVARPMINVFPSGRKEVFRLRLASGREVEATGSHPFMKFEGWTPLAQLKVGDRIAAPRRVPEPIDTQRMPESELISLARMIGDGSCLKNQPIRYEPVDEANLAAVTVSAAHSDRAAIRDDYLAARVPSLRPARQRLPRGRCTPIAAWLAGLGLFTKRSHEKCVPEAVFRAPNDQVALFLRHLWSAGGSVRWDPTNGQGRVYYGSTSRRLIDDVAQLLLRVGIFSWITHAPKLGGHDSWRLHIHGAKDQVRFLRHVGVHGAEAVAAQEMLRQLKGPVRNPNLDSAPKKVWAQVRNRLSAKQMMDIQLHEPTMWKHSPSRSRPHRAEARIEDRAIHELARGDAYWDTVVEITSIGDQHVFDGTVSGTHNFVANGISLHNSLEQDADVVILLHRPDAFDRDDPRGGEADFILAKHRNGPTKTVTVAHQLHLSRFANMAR

Fatty acid synthase [17] = target: T7, Fatty acid synthase; test: FAS thioesterase domain inhibitors, dose response, biochemical, endpoint fluorescence intensity, uHTS hits (AID 624327); format: functional;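 note: fluorescence from hydrolysis of an O-methyl fluorescein acyl ester substrate by the enzyme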
[18] = Luminescence Cell-Based Dose Retest to Confirm Inhibitors of Cancer Stem Cells. [Related pubchem assays (depositor defined):AID2717, AID2721]; format: functional; conditions: Homo sapiens
[19] = target: T9, E3 ubiquitin-protein ligase XIAP (Homo sapiens, UniProt P98170); test: Counter Screen using XIAP-Bir3 of the Chemical Antagonists of IAP-family anti-apoptotic proteins confirmation assay. [Related pubchem assays (depositor defined):AID1018, AID1449, AID1513, AID1638, AID1749, AID1750, AID488957, AID488963]
[20] = target: T9, E3 ubiquitin-protein ligase XIAP; test: Chemical Antagonists of IAP-family anti-apoptotic proteins confirmation. [Related pubchem assays (depositor defined):AID1018, AID1513, AID1514, AID1638, AID1749, AID1750, AID488957, AID488963]
Leucine aminopeptidase = target: T10, Leucine aminopeptidase (Plasmodium falciparum 3D7, UniProt Q8IL11); test: P. falciparum M17LAP inhibitors, primary screen, biochemical, fluorogenic H-Leu-NHMec substrate, 1536-well (AID 1619); format: functional
T10 sequence (Q8IL11 whole entry): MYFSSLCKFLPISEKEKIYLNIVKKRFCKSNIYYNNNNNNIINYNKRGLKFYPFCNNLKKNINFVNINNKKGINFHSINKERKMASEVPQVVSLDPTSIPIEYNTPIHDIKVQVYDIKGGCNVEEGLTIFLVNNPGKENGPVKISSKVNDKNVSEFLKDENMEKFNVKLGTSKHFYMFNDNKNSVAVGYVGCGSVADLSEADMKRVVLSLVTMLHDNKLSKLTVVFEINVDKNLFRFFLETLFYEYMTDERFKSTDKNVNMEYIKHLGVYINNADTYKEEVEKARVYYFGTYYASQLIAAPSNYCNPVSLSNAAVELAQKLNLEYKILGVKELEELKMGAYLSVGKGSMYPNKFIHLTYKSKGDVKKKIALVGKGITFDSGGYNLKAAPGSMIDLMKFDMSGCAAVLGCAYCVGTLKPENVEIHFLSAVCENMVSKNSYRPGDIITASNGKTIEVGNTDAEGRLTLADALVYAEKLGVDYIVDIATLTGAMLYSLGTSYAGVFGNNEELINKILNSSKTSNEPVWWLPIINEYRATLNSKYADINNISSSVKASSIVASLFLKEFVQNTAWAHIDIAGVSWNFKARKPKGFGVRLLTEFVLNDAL

T9 sequence (P98170 whole entry): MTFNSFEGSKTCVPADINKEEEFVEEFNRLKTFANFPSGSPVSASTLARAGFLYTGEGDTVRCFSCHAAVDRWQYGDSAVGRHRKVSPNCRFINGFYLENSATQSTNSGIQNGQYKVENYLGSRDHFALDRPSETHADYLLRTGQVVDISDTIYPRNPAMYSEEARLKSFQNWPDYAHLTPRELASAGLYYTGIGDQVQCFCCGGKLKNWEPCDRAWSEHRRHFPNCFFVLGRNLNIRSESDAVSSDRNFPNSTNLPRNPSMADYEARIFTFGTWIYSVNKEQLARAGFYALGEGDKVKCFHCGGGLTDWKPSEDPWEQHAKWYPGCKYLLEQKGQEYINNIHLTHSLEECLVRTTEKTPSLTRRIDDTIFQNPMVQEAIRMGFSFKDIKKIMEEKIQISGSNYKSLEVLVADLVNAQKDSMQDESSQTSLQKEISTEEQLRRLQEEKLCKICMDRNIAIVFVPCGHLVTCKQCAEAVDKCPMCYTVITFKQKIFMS
T3 sequence (Q9HC97 whole entry): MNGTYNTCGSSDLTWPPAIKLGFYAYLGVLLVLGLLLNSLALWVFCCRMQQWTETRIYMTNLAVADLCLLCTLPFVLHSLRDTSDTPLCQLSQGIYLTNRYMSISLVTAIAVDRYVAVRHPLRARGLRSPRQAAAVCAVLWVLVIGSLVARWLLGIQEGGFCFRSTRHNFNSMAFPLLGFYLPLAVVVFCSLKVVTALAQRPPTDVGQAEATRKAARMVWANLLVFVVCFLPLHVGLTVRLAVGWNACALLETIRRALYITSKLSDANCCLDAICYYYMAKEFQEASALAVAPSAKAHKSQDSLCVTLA
T2 sequence (P65502 whole entry): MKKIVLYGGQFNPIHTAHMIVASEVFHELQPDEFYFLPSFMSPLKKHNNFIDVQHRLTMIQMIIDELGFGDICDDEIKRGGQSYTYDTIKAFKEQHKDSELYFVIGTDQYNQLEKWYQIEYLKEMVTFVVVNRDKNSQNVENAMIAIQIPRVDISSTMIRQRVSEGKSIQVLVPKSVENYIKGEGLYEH
T1 sequence (Q01196 whole entry, the tested form may be a part): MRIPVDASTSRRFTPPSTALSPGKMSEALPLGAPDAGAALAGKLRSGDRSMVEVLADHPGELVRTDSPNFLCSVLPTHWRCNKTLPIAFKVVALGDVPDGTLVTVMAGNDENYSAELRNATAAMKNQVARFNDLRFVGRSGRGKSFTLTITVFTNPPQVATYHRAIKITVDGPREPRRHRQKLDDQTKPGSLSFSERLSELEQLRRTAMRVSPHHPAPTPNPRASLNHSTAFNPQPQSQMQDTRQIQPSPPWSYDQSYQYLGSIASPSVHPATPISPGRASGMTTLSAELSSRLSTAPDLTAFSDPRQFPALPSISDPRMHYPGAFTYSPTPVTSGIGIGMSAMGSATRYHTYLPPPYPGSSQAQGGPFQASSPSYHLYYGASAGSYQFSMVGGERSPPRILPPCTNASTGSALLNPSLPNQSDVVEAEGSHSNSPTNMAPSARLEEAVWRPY
T1 sequence (Q13951 whole entry, the tested form may be a part): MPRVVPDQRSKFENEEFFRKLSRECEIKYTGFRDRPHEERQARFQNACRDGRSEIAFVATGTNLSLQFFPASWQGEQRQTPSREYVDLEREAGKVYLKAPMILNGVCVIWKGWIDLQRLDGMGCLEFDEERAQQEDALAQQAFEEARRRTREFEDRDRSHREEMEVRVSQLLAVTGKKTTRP
T5 sequence (P34972 whole entry): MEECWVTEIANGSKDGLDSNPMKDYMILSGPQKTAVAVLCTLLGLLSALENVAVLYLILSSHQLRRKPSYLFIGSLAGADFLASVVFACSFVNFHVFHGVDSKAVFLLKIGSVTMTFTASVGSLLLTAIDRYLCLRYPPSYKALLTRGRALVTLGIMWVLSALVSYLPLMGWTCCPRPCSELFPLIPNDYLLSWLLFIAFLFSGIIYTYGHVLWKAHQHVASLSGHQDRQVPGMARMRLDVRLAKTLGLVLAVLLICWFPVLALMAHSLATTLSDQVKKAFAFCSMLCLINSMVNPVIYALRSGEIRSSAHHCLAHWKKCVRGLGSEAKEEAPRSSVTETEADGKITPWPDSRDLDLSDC
Sequence of Induced myeloid leukemia cell differentiation protein Mcl-1 (Q07820 whole entry): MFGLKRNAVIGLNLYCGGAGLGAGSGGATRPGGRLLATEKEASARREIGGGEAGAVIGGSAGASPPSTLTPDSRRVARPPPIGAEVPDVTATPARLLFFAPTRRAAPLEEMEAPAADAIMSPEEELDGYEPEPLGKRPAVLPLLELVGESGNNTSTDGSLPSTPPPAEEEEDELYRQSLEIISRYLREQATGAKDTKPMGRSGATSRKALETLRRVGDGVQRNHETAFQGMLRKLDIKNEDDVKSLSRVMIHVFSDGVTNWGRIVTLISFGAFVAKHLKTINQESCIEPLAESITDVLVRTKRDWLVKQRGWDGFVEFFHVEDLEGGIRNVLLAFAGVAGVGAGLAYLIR
T7 sequence (P49327 whole entry, the tested form may be a part): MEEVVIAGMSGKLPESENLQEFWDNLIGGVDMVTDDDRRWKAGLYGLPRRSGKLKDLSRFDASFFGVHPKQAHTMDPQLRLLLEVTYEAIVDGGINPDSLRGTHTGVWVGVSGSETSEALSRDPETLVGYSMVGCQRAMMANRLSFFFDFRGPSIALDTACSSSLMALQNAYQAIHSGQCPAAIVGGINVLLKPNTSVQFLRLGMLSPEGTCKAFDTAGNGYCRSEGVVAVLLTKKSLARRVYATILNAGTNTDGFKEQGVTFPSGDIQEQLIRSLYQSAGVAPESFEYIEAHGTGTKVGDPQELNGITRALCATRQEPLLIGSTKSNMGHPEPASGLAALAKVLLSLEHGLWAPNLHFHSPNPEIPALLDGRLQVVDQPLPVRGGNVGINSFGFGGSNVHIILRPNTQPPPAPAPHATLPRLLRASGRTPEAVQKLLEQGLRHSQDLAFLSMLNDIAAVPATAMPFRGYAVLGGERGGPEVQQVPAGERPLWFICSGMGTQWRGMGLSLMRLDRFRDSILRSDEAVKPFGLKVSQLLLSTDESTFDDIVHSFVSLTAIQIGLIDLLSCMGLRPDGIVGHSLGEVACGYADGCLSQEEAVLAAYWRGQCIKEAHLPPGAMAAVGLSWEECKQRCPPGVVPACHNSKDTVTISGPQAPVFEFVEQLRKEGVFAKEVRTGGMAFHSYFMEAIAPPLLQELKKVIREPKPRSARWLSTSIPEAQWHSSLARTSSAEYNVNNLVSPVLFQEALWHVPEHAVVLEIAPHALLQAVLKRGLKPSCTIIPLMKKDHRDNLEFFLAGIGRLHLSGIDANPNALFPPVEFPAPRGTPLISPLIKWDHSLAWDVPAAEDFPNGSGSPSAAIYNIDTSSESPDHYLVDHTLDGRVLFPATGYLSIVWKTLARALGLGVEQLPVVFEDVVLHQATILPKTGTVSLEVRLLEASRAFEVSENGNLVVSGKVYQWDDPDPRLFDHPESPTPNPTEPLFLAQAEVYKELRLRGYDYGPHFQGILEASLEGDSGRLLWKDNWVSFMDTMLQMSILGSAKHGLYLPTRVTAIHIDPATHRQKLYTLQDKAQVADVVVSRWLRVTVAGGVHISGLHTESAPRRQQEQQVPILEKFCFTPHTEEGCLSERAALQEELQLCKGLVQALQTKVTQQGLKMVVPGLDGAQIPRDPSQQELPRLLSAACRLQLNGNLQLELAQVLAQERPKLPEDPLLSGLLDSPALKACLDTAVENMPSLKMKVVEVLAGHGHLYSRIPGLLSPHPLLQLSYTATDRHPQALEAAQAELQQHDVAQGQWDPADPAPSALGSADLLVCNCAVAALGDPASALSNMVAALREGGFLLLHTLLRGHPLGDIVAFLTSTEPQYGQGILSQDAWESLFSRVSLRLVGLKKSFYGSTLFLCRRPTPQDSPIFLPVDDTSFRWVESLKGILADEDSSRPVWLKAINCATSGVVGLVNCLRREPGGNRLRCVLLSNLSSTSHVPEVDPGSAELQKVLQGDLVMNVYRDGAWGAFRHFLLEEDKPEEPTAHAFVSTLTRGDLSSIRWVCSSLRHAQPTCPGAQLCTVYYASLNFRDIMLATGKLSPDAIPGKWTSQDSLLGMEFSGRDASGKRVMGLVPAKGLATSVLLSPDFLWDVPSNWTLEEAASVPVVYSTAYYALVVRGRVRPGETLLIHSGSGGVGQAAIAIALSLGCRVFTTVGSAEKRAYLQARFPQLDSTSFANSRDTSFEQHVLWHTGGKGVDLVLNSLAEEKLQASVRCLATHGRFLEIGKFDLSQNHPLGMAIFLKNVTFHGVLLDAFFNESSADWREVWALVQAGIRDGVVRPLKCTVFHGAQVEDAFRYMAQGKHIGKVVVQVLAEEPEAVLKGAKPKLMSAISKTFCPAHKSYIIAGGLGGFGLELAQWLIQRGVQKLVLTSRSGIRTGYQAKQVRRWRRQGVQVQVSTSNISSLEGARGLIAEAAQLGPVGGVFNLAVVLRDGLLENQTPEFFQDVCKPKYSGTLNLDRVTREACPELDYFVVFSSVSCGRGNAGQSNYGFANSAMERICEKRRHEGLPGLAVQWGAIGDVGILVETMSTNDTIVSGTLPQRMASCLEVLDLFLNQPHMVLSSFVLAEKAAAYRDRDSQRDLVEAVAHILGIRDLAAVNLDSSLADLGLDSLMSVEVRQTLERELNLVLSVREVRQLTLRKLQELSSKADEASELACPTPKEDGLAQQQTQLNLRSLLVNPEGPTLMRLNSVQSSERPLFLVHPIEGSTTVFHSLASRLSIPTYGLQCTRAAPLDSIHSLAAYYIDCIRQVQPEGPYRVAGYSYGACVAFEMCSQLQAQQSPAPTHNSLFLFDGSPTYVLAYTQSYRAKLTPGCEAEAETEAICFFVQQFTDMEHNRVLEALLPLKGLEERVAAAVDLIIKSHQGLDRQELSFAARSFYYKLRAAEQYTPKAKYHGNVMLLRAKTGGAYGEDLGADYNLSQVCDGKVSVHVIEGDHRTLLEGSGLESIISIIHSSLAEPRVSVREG

Question: For Cc1ccc(Cn2c(=N)c(C(=O)NCc3ccco3)cc3c(=O)n4ccccc4nc32)cc1, which IC50 [1] is on record?
Answer: Its IC50 is 0.475 µM (active).

Question: What about the IC50 [2] of the same molecule?
Answer: Its IC50 is 15.3 µM (active).

Question: And the IC50 [3]?
Answer: Its IC50 is 3.14 µM (active).

Question: Which results are given for CCCCCCC#Cc1cncc(C(=O)NNC(=O)Nc2cc(Cl)cc(Cl)c2)c1?
Answer: IC50 (SUMO-activating enzyme): 59.8 µM (active); CC50 [4]: 9.35 µM (active)

Question: Which results are given for O=C(Nc1ccc(S(=O)(=O)Nc2nccs2)cc1)c1cc(-c2ccncc2)nc2ccccc12?
Answer: IC50 [5]: 21.6 µM (active); IC50 [6]: 6.6 µM (active); EC50 [7]: > 32 µM (inactive); IC50 [8]: > 32 µM (inactive); IC50 [9]: > 32 µM (inactive); IC50 (Cannabinoid receptor 1 [10]): 2.23 µM (active); IC50 (Cannabinoid receptor 2 [11]): > 32 µM (inactive); EC50 (Cannabinoid receptor 2 [12]): > 32 µM (inactive); EC50 (Cannabinoid receptor 1 [13]): > 32 µM (inactive); IC50 [3]: 1.64 µM (active)

Question: For CC(NC(=O)COC(=O)c1cc(NS(=O)(=O)c2ccc(Cl)c([N+](=O)[O-])c2)ccc1O)C1CC2CCC1C2 (centres undefined), which EC50 (Protein RecA) is on record?
Answer: The EC50 was 3.7 µM (active).

Question: And the IC50 (Fatty acid synthase [14])?
Answer: Its IC50 is 11.7 µM (active).

Question: What about the CC50 [15] of the same molecule?
Answer: The CC50 was 32.7 µM (active).

Question: And the AC50 [16]?
Answer: The AC50 was 2.01 µM (active).

Question: And the IC50 (Fatty acid synthase [17])?
Answer: Its IC50 is 11.1 µM (active).

Question: What about the AC50 [18] of the same molecule?
Answer: The AC50 was 3.17 µM (active).

Question: With O=C(O)[C@H](Cc1ccccc1)N1Cc2ccccc2C1=O as the molecule, how does the IC50 [19] read?
Answer: Its IC50 is > 200 µM (inactive).

Question: And the IC50 [20]?
Answer: The IC50 was 131 µM (inactive).

Question: What about the IC50 (Leucine aminopeptidase) of the same molecule?
Answer: Its IC50 is 6.47 µM (active).
